Assay results from ChEMBL document CHEMBL1201862, “PubChem BioAssay data set” (2004).
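Method: 48-hour compound exposure of cells in 96-well plates, five concentrations, linear interpolation of endpoints. GI50: concentration for 50% inhibition of growth.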 Active and inactive are the calls of the source. Rule as the data show it: active = GI50 up to about 1.1 µM and inactive = higher.

Columns and labels:
Assay in all cases: NCI tumour cell line growth inhibition, 48 h
[1] = tested on: SNB-19
[2] = tested on: U-251
[3] = tested on: K562
[4] = tested on: A498
[5] = tested on: IGROV-1
[6] = tested on: RXF 393
[7] = tested on: HCT-116
[8] = tested on: COLO 205
[9] = tested on: UACC-62
[10] = tested on: XF498
[11] = tested on: CAKI-1
[12] = tested on: RPMI-8226
[13] = tested on: LOX IMVI
[14] = tested on: UO-31
[15] = tested on: NCI-H226
[16] = tested on: NCI-H460
[17] = tested on: Malme-3M
[18] = tested on: HOP-62
[19] = tested on: SNB-78
[20] = tested on: UACC-257
[21] = tested on: OVCAR-5
[22] = tested on: M19-MEL
[23] = tested on: DLD-1
[24] = tested on: SF-268
[25] = tested on: DMS-273
[26] = tested on: SF-295
[27] = tested on: SK-MEL-5
[28] = tested on: OVCAR-8
[29] = tested on: SW-620
[30] = tested on: HOP-92
[31] = tested on: SN12C
[32] = tested on: NCI-H23
[33] = tested on: A549
[34] = tested on: NCI-H522
[35] = tested on: MOLT-4
[36] = tested on: SF-539
[37] = tested on: HT-29
[38] = tested on: SK-MEL-2
[39] = tested on: SK-OV-3
[40] = tested on: KM-20L2
[41] = tested on: MCF7
[42] = tested on: OVCAR-4
[43] = tested on: HCT-15
[44] = tested on: OVCAR-3
[45] = tested on: HCC 2998
[46] = tested on: HOP-18
[47] = tested on: EKVX
[48] = tested on: KM12
[49] = tested on: SNB-75
[50] = tested on: SK-MEL-28
[51] = tested on: NCI/ADR-RES
[52] = tested on: CCRF-CEM
[53] = tested on: HL-60
[54] = tested on: M14
[55] = tested on: MDA-MB-435
[56] = tested on: DMS-114
[57] = tested on: T47D
[58] = tested on: SR
[59] = tested on: MDA-MB-231
[60] = tested on: Hs-578T
[61] = tested on: DU-145
[62] = tested on: TK-10
[63] = tested on: BT-549
[64] = tested on: 786-0
[65] = tested on: MDA-N
[66] = tested on: PC-3

Measured: GI50

Cc1ccc(N2Cc3c(ccc4ccccc34)OP2(=S)N2CCCC2)cc1 (stereo not given)
> 100 µM: [43]
inactive: [1] > 100 µM | [2] > 100 µM | [3] > 89.9 µM | [4] > 56.5 µM | [5] > 100 µM | [6] > 100 µM | [7] > 100 µM | [8] > 100 µM | [9] > 100 µM | [10] > 100 µM | [11] > 100 µM | [12] > 22 µM | [13] > 100 µM | [14] 85.7 µM | [15] > 100 µM | [16] > 100 µM | [17] > 100 µM | [18] > 100 µM | [19] > 100 µM | [20] > 100 µM | [21] > 100 µM | [22] > 100 µM | [23] > 100 µM | [24] > 100 µM | [25] > 100 µM | [26] > 67.8 µM | [27] > 100 µM | [28] > 100 µM | [29] > 100 µM | [30] > 100 µM | [31] > 100 µM | [32] > 100 µM | [33] > 100 µM | [34] > 100 µM | [35] > 44.5 µM | [36] > 100 µM | [37] > 100 µM | [38] > 100 µM | [39] > 100 µM | [40] > 100 µM | [41] > 100 µM | [42] > 100 µM | [44] > 40.1 µM | [45] > 100 µM | [46] > 100 µM | [47] > 100 µM | [48] > 100 µM | [49] > 100 µM | [50] > 100 µM | [51] > 100 µM | [52] > 100 µM | [53] > 100 µM

CO[C@H](C(=O)[C@@H](O)[C@@H](C)O)[C@@H]1Cc2cc3cc(OC4CC(OC5CC(O)C(O)C(C)O5)C(O)C(C)O4)c(C)c(O)c3c(O)c2C(=O)[C@H]1OC1CC(OC2CC(OC3CC(C)(O)C(O)C(C)O3)C(O)C(C)O2)C(O)C(C)O1 (stereo not given in full)
active: [1] 0.125 µM | [54] 0.0196 µM | [7] 0.125 µM | [10] 0.314 µM | [11] 0.125 µM | [55] 0.0197 µM | [56] 0.348 µM | [57] 0.00406 µM | [15] 0.125 µM | [19] 0.395 µM | [58] 0.00526 µM | [22] 0.314 µM | [23] 0.334 µM | [25] 0.348 µM | [28] 0.176 µM | [59] 0.0495 µM | [36] 0.125 µM | [60] 0.00331 µM | [61] 0.0438 µM | [62] 0.129 µM | [40] 0.348 µM | [63] 0.00689 µM | [64] 0.00927 µM | [65] 0.0128 µM | [46] 0.125 µM | [66] 0.0284 µM | [53] 0.128 µM
